≈ marks a conversion by molar mass, not a printed value.
Tests used:
human Nav1.8 [1] = target: T1, human Nav1.8 (Homo sapiens, UniProt Q9Y5Y9); assay: Manual patch-clamp electrophysiology assay, HEK293 cells overexpressing human Nav1.8; format: cell-based; parameters: host or cells: HEK293; conditions: manual whole-cell patch-clamp, single-pulse resting protocol, holding voltage -120 mV, step to 0 mV, room temperature
From the text: The pharmacological activity of the Compounds of Example 4A and Example 5A (active parent compound of prodrug Example 4 and Example 5, respectively) was investigated by a patch-clamp electrophysiological method using a cellular system in which human Nav1.8 was overexpressed in HEK293 cells. Using this approach Nav1.8 can be activated by modulating the plasma membrane voltage and then channel function (Na^+ conduction) can be directly quantified. The ability of Nav1.8 inhibitors to block channel function in this system is a measurement of target binding and inhibition.
Cell preparation: HEK293 cells overexpressing human Nav1.8 (BIOCAT124824) were grown at 37° C., 5% C02 in medium (DMEM/F12 with 10% FBS, 2 mM GlutaMAX, 0.1 mM NEAA and […] G418, […] Hygromycin-B and […] Puromycin). […]
Voltage-clamp recording protocol: Compound effects were tested using single-pulse resting protocol in which cells were depolarized to 0 mV for 50 ms from a holding voltage of −120 mV. The peak current amplitudes were measured from the activated currents at 0 mV. […]
Nav1.8 current amplitudes measurement and normalization: Nav1.8 peak currents elicited by test pulse of 0 mV were measured and analysed by Clampfit 10.6 Software (Molecular Devices, USA). […]
Compound inhibition analysis: The compound inhibition effect was calculated using the following equation: […]

CAD kinetic solubility = format: physicochemical; conditions: phosphate buffered saline (PBS), aqueous buffer, PBS pH 7.4, 1 hour equilibration at room temperature, from DMSO stock, HPLC-CAD
Description: Kinetic solubility was measured using Charged Aerosol Detector (CAD). The aqueous kinetic solubility at pH 7.4 was determined by measuring the concentration of solute in solution after precipitation from DMSO stock solution. The DMSO stock solution was diluted 20-fold with phosphate buffered saline (PBS) pH 7.4 and the solubility of the compound was measured after 1 hour equilibration at room temperature by HPLC-CAD.

human Nav1.8 [2] = target: T1, human Nav1.8; assay: Nav1.8 inhibitory activity, QPatch 48 HTX electrophysiology in HEK293-Nav1.8 cells; format: cell-based; parameters: expressed in transfected cells; host or cells: HEK293; conditions: half inactivation state voltage protocol (V1/2), HEK293 cells expressing human Nav1.8, read-out: [Nav1.8] pIC50 (converted)
Description: Biological Assay 1: Nav1.8 Inhibitory Activity Human embryonic kidney 293 cells (HEK293) expressing human Nav1.8, human Navol and human TREK1 (HEK293-Nav1.8) were grown in T150 cell culture flasks at 37° C., 5% CO2 incubator. HEK293-Nav1.8 were passaged every 2-3 days when confluency reached 80-90% in T150 cell culture flasks.
Pharmacological assessment of compounds of the invention was performed using the QPatch 48 HTX electrophysiological platform. HEK293-Nav1.8 cells were prepared on the day of use by removing culture media, washing in DPBS, adding Accutase (2 mL to cover the surface, aspirate 1 mL then 1-2 minutes at 37° C.) followed by addition of CHO-SFM II to stop the enzyme digestion and in order to obtain a suspension of 3×10^6 cell/mL.
Compounds of the invention were prepared in an extracellular solution of the following composition: NaCl (145 mM), KCl (4 mM), CaCl2) (2 mM), MgCl (2 mM), HEPES (1 mM), Glucose (10 mM), pH 7.4 with NaOH Osmolality 300 mOsM/L. An intracellular solution of the following composition was used: CsF (115 mM), CsCl (20 mm), NaCl (5 mM), EGTA (10 mM), HEPES (10 mM), Sucrose (20 mM), pH 7.2 with CsOH Osmolality 310 mOsm/L.
Utilizing the voltage-clamp mode in the QPatch 48 HTX system a half inactivation state voltage protocol (V1/2) was used to determine pharmacological activity of compounds of the invention at Nav1.8 ion channels. A V1/2 protocol was utilized with the following voltage steps: a holding voltage of −100 mV was established followed by a 20 ms voltage step to 0 mV (P1), followed by an inactivating voltage step at −46 mV for 8 seconds, followed by a step to −100 mV for 20 ms, before a 20 ms step to 0 mV (P2), then returned to the holding voltage of −100 mV. This voltage protocol was repeated at a frequency of every 15 seconds, the current magnitude was quantified at the P2 step throughout the recording. Inhibition of the measured current amplitude with compounds of the invention was analyzed by fitting a 4-6 points dose-response curve allowing determination of the fifty percent inhibition concentration (IC50). P2 currents were normalized according to measurements made at baseline (Baseline, vehicle only), after compound (Input, at each test concentration), and after positive reference compound (FullResponse, to achieve complete block), fit to the following equation: […]
To assess current run-down over the course of the experiment vehicle-only wells were utilized and the normalized current with vehicle-only (n. IVEH) was determined. To correct the compound response for run-down, the currents were corrected according to the following formula:
[formula] • Compound inhibition was fitted to the following Hill Equation to estimate the half maximal inhibition concentration (IC50)
[formula] • where Y is the normalized run-down corrected inhibition relative to the vehicle control (equivalent to n. IRD_Correct), C the test compound concentration, IC50 the concentration of test compound to inhibit the sodium current by 50%, and h the Hill coefficient.

T1 sequence (Q9Y5Y9 whole entry): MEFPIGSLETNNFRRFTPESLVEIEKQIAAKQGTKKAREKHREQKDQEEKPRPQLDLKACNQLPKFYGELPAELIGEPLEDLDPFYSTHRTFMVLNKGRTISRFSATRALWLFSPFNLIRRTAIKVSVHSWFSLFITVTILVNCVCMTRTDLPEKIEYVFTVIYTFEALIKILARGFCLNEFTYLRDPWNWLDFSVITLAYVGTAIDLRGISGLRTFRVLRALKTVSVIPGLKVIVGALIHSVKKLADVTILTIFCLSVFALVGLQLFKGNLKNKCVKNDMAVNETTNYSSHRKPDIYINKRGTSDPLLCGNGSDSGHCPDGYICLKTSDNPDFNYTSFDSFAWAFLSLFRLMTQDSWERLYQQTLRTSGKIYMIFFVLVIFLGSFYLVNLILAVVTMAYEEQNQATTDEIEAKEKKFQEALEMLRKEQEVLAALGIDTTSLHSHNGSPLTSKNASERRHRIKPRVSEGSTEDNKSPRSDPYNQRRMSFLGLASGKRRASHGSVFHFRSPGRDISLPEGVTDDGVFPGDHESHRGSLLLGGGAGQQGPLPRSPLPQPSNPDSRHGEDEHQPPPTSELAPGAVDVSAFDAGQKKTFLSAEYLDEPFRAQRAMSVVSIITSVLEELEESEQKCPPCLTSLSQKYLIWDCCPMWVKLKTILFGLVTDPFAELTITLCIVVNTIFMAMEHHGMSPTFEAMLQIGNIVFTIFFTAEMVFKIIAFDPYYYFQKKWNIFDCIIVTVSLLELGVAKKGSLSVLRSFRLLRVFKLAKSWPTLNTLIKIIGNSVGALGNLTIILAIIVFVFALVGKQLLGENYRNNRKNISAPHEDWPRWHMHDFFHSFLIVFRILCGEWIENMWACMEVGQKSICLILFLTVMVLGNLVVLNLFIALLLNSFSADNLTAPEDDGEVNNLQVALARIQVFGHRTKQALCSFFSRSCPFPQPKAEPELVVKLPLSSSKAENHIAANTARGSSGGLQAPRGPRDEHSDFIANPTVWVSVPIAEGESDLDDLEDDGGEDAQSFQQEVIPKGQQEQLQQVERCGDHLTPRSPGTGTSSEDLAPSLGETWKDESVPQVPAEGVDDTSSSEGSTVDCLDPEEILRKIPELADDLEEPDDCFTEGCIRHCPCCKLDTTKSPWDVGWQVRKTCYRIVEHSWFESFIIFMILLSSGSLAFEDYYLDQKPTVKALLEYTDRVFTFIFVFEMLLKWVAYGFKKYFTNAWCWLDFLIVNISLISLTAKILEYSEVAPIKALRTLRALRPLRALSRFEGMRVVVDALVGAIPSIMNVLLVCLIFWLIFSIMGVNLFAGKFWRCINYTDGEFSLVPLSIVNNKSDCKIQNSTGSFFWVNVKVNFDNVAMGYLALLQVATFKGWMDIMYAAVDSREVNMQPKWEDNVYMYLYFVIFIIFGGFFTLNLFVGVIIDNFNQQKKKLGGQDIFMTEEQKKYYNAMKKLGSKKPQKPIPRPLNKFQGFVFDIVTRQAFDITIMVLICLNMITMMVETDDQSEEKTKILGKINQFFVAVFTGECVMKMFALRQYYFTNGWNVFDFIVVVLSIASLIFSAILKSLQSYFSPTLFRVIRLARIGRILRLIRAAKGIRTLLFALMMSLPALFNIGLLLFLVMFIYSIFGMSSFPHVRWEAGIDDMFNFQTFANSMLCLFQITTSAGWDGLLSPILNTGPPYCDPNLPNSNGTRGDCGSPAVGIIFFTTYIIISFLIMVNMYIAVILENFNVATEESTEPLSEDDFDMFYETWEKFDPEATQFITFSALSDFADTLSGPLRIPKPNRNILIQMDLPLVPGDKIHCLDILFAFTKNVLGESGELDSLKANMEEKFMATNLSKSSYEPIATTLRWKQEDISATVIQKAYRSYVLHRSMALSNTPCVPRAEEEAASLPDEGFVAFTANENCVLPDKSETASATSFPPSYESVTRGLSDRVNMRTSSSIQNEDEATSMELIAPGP

Structure (SMILES): Cc1[nH]c(=O)ccc1N1CN(c2ccc(F)c(F)c2C)c2cc(Cl)c(F)cc2C1=O [Example 4A, 7-chloro-1-(3,4-difluoro-2-methylphenyl)-6-fluoro-3-(2-methyl-6-oxo-1,6-dihydropyridin-3-yl)-2,3-dihydroquinazolin-4(1H)-one]
- IC50 (human Nav1.8 [1]): 0.8 ± 0.2 nM
- solubility at 1 h (CAD kinetic solubility): 44 µg/mL (≈ 101 µM)
- IC50 (human Nav1.8 [2]): 5.01 nM

Structure (SMILES): Cc1cc(F)ccc1N1CN(c2ccc(=O)[nH]c2C)C(=O)c2cc(F)c(Cl)cc21 [Example 5A, 7-chloro-6-fluoro-1-(4-fluoro-2-methylphenyl)-3-(2-methyl-6-oxo-1,6-dihydropyridin-3-yl)-2,3-dihydroquinazolin-4(1H)-one]
- IC50 (human Nav1.8 [1]): 2.2 nM
- solubility at 1 h (CAD kinetic solubility): 55 µg/mL (≈ 132 µM)
- IC50 (human Nav1.8 [2]): 5.01 nM
